Columns and labels:
Adenosine receptor A3 [1] = biological target: T1, Adenosine receptor A3 (Homo sapiens, UniProt P0DMS8); test: biochemical
T1 sequence (P0DMS8 whole entry): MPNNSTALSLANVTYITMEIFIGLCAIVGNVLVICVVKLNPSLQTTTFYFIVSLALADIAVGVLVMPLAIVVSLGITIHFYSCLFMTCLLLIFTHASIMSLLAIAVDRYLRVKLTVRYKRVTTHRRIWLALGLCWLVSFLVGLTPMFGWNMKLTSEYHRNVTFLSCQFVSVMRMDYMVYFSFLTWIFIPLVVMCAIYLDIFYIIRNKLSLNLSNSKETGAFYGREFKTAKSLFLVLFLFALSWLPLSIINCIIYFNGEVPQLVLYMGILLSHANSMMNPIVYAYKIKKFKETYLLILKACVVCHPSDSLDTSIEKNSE
Description: Displacement of [3H]NECA from human adenosine A3 receptor expressed in HeLa cells measured by scintillation counting assay

Adenosine receptor A3 [2] = biological target: T1, Adenosine receptor A3
Description: Antagonist activity at human adenosine A3 receptor expressed in CHO cells assessed as cAMP level measured by enzyme immunoassay

[3] = biological target: T2, Amine oxidase [flavin-containing] B (Homo sapiens, UniProt P27338)
T2 sequence (P27338 whole entry): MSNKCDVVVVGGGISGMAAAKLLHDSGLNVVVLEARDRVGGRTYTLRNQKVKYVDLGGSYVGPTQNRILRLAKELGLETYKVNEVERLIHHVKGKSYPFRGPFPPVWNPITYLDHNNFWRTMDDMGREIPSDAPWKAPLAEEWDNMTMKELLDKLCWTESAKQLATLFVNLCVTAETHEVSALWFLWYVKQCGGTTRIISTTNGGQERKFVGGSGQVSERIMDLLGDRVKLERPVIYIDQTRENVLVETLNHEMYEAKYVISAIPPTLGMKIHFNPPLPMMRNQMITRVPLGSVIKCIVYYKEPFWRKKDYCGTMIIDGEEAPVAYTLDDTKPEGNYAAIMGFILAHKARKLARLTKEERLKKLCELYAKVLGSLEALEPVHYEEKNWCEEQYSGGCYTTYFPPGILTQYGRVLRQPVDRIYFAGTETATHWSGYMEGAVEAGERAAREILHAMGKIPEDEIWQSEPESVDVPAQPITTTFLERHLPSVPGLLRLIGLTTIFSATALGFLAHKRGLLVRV
Description: Inhibition of MAO-B (unknown origin)

Adenosine receptor A2a [4] = biological target: T3, Adenosine receptor A2a (Homo sapiens, UniProt P29274)
Description: Binding affinity to human adenosine A2A receptor

in vivo [5] = details: male, Wistar, rat
Description: Half-life in male Wistar rat

Adenosine receptor A1 [6] = biological target: T4, Adenosine receptor A1 (Homo sapiens, UniProt P30542)
T4 sequence (P30542 whole entry): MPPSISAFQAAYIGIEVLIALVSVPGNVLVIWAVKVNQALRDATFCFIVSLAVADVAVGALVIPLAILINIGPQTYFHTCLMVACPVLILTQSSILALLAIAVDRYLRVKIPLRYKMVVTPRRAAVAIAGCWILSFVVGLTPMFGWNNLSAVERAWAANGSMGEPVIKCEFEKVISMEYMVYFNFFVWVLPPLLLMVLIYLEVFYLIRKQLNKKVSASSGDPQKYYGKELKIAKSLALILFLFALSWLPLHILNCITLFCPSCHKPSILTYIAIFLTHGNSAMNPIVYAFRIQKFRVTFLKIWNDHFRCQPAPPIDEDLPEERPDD
Description: Antagonist activity at human adenosine A1A receptor

Adenosine receptor A2b [7] = biological target: T5, Adenosine receptor A2b (Homo sapiens, UniProt P29275)
T5 sequence (P29275 whole entry): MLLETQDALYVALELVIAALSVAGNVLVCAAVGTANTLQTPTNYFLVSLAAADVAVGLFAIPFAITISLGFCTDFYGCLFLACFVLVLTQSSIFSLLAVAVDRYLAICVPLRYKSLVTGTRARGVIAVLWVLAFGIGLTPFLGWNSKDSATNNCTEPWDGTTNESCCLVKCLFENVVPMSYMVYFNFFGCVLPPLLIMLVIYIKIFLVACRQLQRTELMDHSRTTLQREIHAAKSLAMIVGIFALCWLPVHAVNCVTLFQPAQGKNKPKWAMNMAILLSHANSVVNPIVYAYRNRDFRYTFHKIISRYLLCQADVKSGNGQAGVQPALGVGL
Description: Binding affinity to human adenosine A2B receptor

Adenosine receptor A2b [8] = biological target: T5, Adenosine receptor A2b; remark: listed apart in the source
Description: Antagonist activity at human adenosine A2B receptor expressed in mouse NIH/3T3 cells assessed as inhibition of NECA-induced IL-6 release

Adenosine receptor A2b [9] = biological target: T5, Adenosine receptor A2b; test: Antagonist activity at human adenosine A2B receptor expressed in HEK293 cells assessed as inhibition of cAMP production; assay type: functional, cell-based
in vitro [10] = details: human, Caco-2
Description: Apparent permeability in human Caco-2 cells

in vitro [11] = details: human, liver microsomes
Adenosine receptor A2a [12] = biological target: T3, Adenosine receptor A2a; test: Displacement of [3H]NECA from human adenosine A2A receptor expressed in CHO cells measured by radioligand competition assay; assay type: cell-based
Adenosine receptor A1 [13] = biological target: T4, Adenosine receptor A1; test: Displacement of [3H]CCPA from human adenosine […] receptor expressed in CHO cells measured by radioligand competition assay; assay type: cell-based
in vivo [14] = details: male, Wistar, rat, iv, 3 mg/kg
Description: Half-life in male Wistar rat at 3 mg/kg, iv

Adenosine receptor A2a [15] = biological target: T3, Adenosine receptor A2a; test: biochemical
Description: Displacement of [3H]ZM-241385 from human adenosine A2A receptor expressed in HEK293 cells incubated for 60 mins and measured by scintillation counting assay

Rattus norvegicus [16] = species on record: Rattus norvegicus; test: animal or person; details: po, 4 h
Description: Reversal of haloperidol-induced catalepsy in rat administered orally and measured after 4 hrs

Rattus norvegicus [17] = species on record: Rattus norvegicus; test: animal or person; details: po
Description: Antiparkinson's activity in L-DOPA induced dyskinesia rat model assessed as reduction in contralateral rotations administered orally

T3 sequence (P29274 whole entry): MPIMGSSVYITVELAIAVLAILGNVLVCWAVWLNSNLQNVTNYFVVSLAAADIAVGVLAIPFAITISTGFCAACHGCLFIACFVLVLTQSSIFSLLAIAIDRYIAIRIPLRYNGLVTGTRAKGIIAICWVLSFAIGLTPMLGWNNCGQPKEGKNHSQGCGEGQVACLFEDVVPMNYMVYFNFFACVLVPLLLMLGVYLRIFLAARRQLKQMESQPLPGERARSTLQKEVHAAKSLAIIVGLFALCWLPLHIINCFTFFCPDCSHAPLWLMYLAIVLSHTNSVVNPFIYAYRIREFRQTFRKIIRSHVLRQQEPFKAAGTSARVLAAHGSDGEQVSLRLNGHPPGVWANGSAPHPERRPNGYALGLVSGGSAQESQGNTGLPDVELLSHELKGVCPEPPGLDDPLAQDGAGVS

Work on `CCn1nnc([C@H]2O[C@@H](n3cnc4c(N)nc(NC(C)Cc5ccc(OC)cc5)nc43)[C@H](O)[C@@H]2O)n1` (some centres not stated) yielded a Ki (Adenosine receptor A3 [1]) of 13 nM and a Ki (Adenosine receptor A3 [2]) of 6 nM.

In the case of `Cn1c(=O)c2c(nc(/C=C/c3cccc(Br)c3)n2C)n(C)c1=O`, the IC50 [3] is reported as 112 nM and the Ki (Adenosine receptor A2a [4]) is reported as 28.4 nM.

In the case of `CCCn1c(Oc2ccc(F)c(F)c2)nc2nc(C3CCCC3)[nH]c2c1=O`, the half-life (in vivo [5]) is reported as 120 min and the Ki (Adenosine receptor A1 [6]) is reported as 2 nM.

`CCCn1c(=O)c2[nH]c(-c3cnn(CC#Cc4cccc(OC(F)(F)F)c4)c3)nc2n(CCC)c1=O` gave a Ki (Adenosine receptor A2b [7]) of 13 nM, an IC50 (Adenosine receptor A2b [8]) of 107 nM and a Ki (Adenosine receptor A2b [9]) of 8 nM.

For `Nc1cc(-c2ccco2)c2oc(-c3ccco3)nc2c1`, the Papp (in vitro [10]) was 77 ×10⁻⁶ cm/s and the half-life at 0.1 µM (in vitro [11]) was > 41 min.

Compound `O=c1oc2c(O)cccc2cc1-c1ccc(Br)cc1` has a Ki (Adenosine receptor A2a [12]) of 12.1 µM and a Ki (Adenosine receptor A1 [13]) of 2400 nM.

Compound `COCCOc1ccc(N2CCN(CCn3c(=O)n(C)c4c3nc(N)n3nc(-c5nccs5)nc43)CC2)c(F)c1` has a half-life (in vivo [14]) of 60 min, a Ki (Adenosine receptor A2a [15]) of 0.4 nM and an ED50 (Rattus norvegicus [16]) of 4.49 mg/kg. The ED50 (Rattus norvegicus [17]) was 1.2 mg/kg.
